“Also recorded” adds a separate entry of the source.

The nature of data set [1]: Solubility in water, formulations and DMSO. In kind it is physicochemical. The procedure:
(§1) Thomas and colleagues reported that a solution of 4b at 1 mg/mL was previously obtained using this procedure. […] We therefore prepared both TFA and hydrochloride (HCl) salts of 4b to establish whether they could offer improved solubility. Neither salt form of 4b was particularly soluble in water (<1 mg/ml). […] A study of the stability of the TFA salt also raised another more worrying issue in the use of 2-hydroxypropyl-β-cyclodextrin–complexed 4b salts for potential in vivo studies. […] The 4b. TFA cyclodextrin suspension targeted at 1 mg/ml with heating gave an initial (day 1) measured value of 0.75 mg/ml total 4b, with only 0.27 mg/mL solubilised as quantified in the sample after filtration. The lower than expected initial quantification of 4b was most likely due to the TFA salt rapidly degrading upon heating. Indeed, we always found the presence of the cyclised benzimidazole conversion product, named throughout as product C1, in the salt formulations even at t = 0 after preparation. Furthermore, the suspension was not stable upon standing in the dark with gentle shaking at room temperature, with a further 28% decrease observed in parent (4b) concentration on day 7 analysis, compared to day 1.
As a consequence de novo formulation attempts were made with the stable free base form. After several trials with different excipients, we were able to reach a soluble formulation preparation of 1 mg/ml 4b in 2% N-methyl-2-pyrollidone, 18% polyethylene glycol 400, 10% solutol HS-15 and 70% (1% Lutrol F68 in water), a vehicle which we have previously used without any adverse effects in R6/2 model chronic efficacy trials, but is unlikely to be palatable to mice in drinking water. With this concentration, a single oral gavage dose will result in a maximum of 10 mg/kg dose level (assuming a maximum dose volume of […]), considerably lower than that estimated to have been used by Thomas et al (150 mg/kg day in drinking water). In an attempt to replicate the original dose level as close as possible, it became necessary to formulate the test compound in suspension. We achieved a stable homogeneous suspension of free base 4b up to 100 mg/ml in 0.5% carboxymethylcellulose (medium viscosity) in reverse osmosis deionized (RODI) water. This suspension was used to evaluate the oral pharmacokinetics of 4b in mice. […]

Data set [2] can be described thus: Chemical stability in formulation or solution. The format is physicochemical. The method, then:
as §1, with “TFA cyclodextrin suspension targeted at 1 mg/ml with heating gave an initial (day 1) measured value of 0.75 mg/ml total 4b, with only 0.27 mg/mL solubilised as quantified in the sample after filtration.” left out
According to Thomas et al, verification of an acute pharmacodynamic response (the reversal of transcriptional dysregulation in the R6/2 model) was achieved by the repeated once daily injection of 150 mg/kg 4b in 50∶50 DMSO: PBS for three consecutive days. […] The lack of any pharmacodynamic response predictive of central Class I HDAC inhibition when 4b was dosed orally at 150 mg/kg twice daily for 5 days confirmed this prediction.

Data set [3] can be described thus: Solubility in water, formulations and DMSO. The conditions noted are these: cyclodextrin formulation prepared without heating. In kind it is physicochemical.
Data set [4] concerns the target T1, HDAC3-NcoR2 (Homo sapiens, UniProt O15379).
T1 construct: purified recombinant human full length HDAC1 (cat# 50051), HDAC2 (cat# 50052), HDAC3-NcoR2 (cat# 50003); purchased BPS Bioscience (San Diego, CA) 50003
As to the kind of experiment: Two-step fluorogenic deacetylase assay, recombinant HDAC3. The conditions noted are these: standard 1 h pre-incubation conditions. The format is biochemical. The method, then:
As described, the length of compound-enzyme incubation has been reported to be critical for this class of HDAC inhibitors, where a unique time-dependent increase in affinity and subsequent potency has been observed [36]–[38]. […] To better mimic physiological conditions, our experiments were performed at 37°C as opposed to room temperature as reported in previous studies. […] To confirm that this shift was independent of the time of 4b in aqueous solution, 4b was applied immediately to the enzyme-substrate mix both after preparing in aqueous buffer, and 120 min after preparation.
To assess the biochemical and cellular potency of 4b and its conversion products/metabolites, we utilized the two-step fluorogenic assay which measures the HDAC-mediated catalytic conversion of synthetic acetylated lysine substrates. In brief, on deacetylation of the substrates by HDAC activity, a protease site is unmasked which allows subsequent trypsin-mediated cleavage and release of the highly flourescent AMC molecules in a subsequent step of the assay. The substrates used were Lys_Ac_AMC (Bachem I-1875) for HDAC3 and (Ac)Arg-Gly-Lys(Ac) (Bachem I-1925) for HDAC1 and HDAC2. The final substrates used for each enzyme assessment were carefully selected after assessing the catalytic turnover of each of these substrates against HDAC1, HDAC2 and HDAC3 respectively, and selecting the ones that performed best. To assess Class IIa enzyme activity (HDAC4, 5, 7, 9) and Class I HDAC8 activity, we used the alternative substrate Boc_Lys_TFA (Bachem I-1985), equivalent to substrate 4 of [42]. Class IIa HDACs have approximately 1000-fold less catalytic activity than Class 1 enzymes, and show only extremely low turnover of acetylated substrates due to a Tyr to His mutation in the active site. However, the relatively labile and sterically more demanding trifluoracetyl group is readily hydrolyzed by the catalytically less avid Class IIa enzymes, allowing measurement of Class IIa activity using the 2-step fluorogenic assay. Intriguingly the Boc_Lys_TFA substrate seems to show almost total selectivity for Class IIa enzymes over class I and Class IIb enzymes, with the exception of HDAC8 ([42], and internal data).
For evaluation of the class selectivity of the compounds, we assessed inhibition against purified recombinant human full length HDAC1 (cat# 50051), HDAC2 (cat# 50052), HDAC3-NcoR2 (cat# 50003) and HDAC8 (cat# 50008): as representative of Class I activity; catalytic domain HDAC4(αα 648–1057), HDAC5 (αα 657–1123; cat # 50005), HDAC7 (αα 518-end; cat # 50007) and HDAC9 (αα 604–1066; cat # 50009) activity: representing all Class IIa activity; and full length HDAC6 (cat#50006): representing Class IIb activity. With the exception of purified catalytic domain HDAC4, which was prepared for us by Emerald Biosciences (Seattle, WA), all HDAC enzymes were purchased from BPS Bioscience (San Diego, CA).
Unless otherwise stated in the text, assays were run in the following format in 384-well plates using automated liquid handling procedures. Briefly, frozen enzyme stock and compounds were diluted in assay buffer (50 mM Tris-HCl, 137 mM NaCl, 2.7 mM KCl, 1 mM MgCl2 at pH 8.0) and added to plates at concentrations sufficient to achieve a 16-point concentration-response curve from 50 µM to 1 nM at 1% DMSO final concentration, after addition of all reagents. Substrate diluted in assay buffer was then added and plates were incubated after brief shaking for 60 min at 37°C. Following incubation, a developer/stop-step was introduced to terminate the reaction and cleave the fluorescent substrate: either the addition of trypsin with 10 µM Compound 26 [44] for the Class IIa enzymes, or trypsin with 5 µM Trichostatin A (TSA) for the Class I/IIb enzymes. Plates were briefly shaken and then returned to the incubator for a further 60 min, followed by measurement of fluorescence per well (Ex 355 nm, Em 460 nm) on a Perkin Elmer EnVision. […]

In data set [5] the test system is endogenous Class I HDACs/HDAC6. As to the kind of experiment: Cellular HDAC assay, Boc_Lys_Ac substrate, Jurkat E6.1 cells. The format is cell-based. Conditions: up to 50 µM; 5 h incubation. The procedure: Briefly, Jurkat E6.1 cells (obtained from the European Collection of Cell Cultures (ECACC)) were plated into 384 well plates at 75,000 cells/well in cellular assay buffer (RPMI without phenol red, 0.1% Fetal Bovine Serum, 10 mM HEPES, 1 mM Sodium Pyruvate). […] Fluorescent counts were read the following morning on the Perkin Elmer EnVision.
Each compound was tested in duplicate in concentration-response format on 3 separate days. […] A full dose response of reference compound was always included alongside the profiling, to ensure that assay parameters remained within acceptable limits.

The nature of data set [6]: Plasma stability. The format is in vitro ADME, mouse. Conditions: mouse plasma. The method, then:
Incubations of test compound (5 µM initial concentration, n = 2) were carried out with pooled mouse plasma or BSA (45 mg/mL in 0.1 M phosphate buffered saline). The incubations were performed at 37°C. Samples (50 µL) were obtained from the incubation at 0, 10, 30, 120, 240, 360 and 1440 min, and added to 150 µL of acetonitrile containing carbamazepine as analytical internal standard to terminate the reaction. Samples were centrifuged and the supernatant fractions analysed by LC-MS/MS.
For half-life determinations, the instrument responses (peak areas) normalized for internal standard response, were referenced to the zero time-point samples (as 100%) in order to determine the percentage of compound remaining. Ln plots of the % remaining, for each compound, were used to determine the half-life for the plasma incubations. Half-life values were calculated from the relationship:-. [drawing 1] Where λ was the slope of the natural logarithmic (Ln) concentration vs time curve.
When quantification was required, calibration standards for parent compound and metabolites were prepared in control plasma and extracted and analysed as described for the study samples. Quantification of parent compound or metabolite was by extrapolation from the calibration line.

Data set [7] can be described thus: Hepatic microsomal stability. In kind it is in vitro ADME, mouse. Conditions: mouse hepatic microsomes; parent 4b. The method, then:
Incubations of test compounds (1 µM initial concentration, n = 2) were carried out with pooled hepatic microsomes (0.25 mg protein/mL in 0.1 M phosphate buffer pH 7.4). NADPH (1 mM) was added to initiate the reactions. The incubations were performed at 37°C. Samples (100 µL) were taken from the incubation at 0, 5, 10, 20 and 40 min and added to 100 µL of acetonitrile containing carbamazepine as analytical internal standard, to terminate the reaction. Samples were centrifuged and the supernatant fractions analysed by LC-MS/MS. The instrument responses (i.e. chromatographic peak heights), normalized by internal standard response were referenced to the zero time-point samples (as 100%) in order to determine the percentage of compound remaining.
Ln plots of the % remaining, for each compound, were used to determine the half-life for the microsomal incubations.
Half-life values were calculated from the relationship. [drawing 2] where λ was the slope of the Ln concentration vs time curve.
The in vitro intrinsic clearance, CLint (µL/min/mg microsomal protein), was calculated using the following formula: [drawing 3]
When quantification was required, calibration standards for parent compound and metabolites were prepared in control hepatic microsomes and extracted and analysed as described for the study samples. Quantification of parent compound or metabolite was by extrapolation from the calibration line.

The test system of data set [8] is HDACs. As to the kind of experiment: Biochemical HDAC assays (whole panel). Conditions: up to 50 µM. Set-up: species or system human. An excerpt: To assess the biochemical and cellular potency of 4b and its conversion products/metabolites, we utilized the two-step fluorogenic assay which measures the HDAC-mediated catalytic conversion of synthetic acetylated lysine substrates. In brief, on deacetylation of the substrates by HDAC activity, a protease site is unmasked which allows subsequent trypsin-mediated cleavage and release of the highly flourescent AMC molecules in a subsequent step of the assay. The substrates used were Lys_Ac_AMC (Bachem I-1875) for HDAC3 and (Ac)Arg-Gly-Lys(Ac) (Bachem I-1925) for HDAC1 and HDAC2. […] However, the relatively labile and sterically more demanding trifluoracetyl group is readily hydrolyzed by the catalytically less avid Class IIa enzymes, allowing measurement of Class IIa activity using the 2-step fluorogenic assay. […]
For evaluation of the class selectivity of the compounds, we assessed inhibition against purified recombinant human full length HDAC1 (cat# 50051), HDAC2 (cat# 50052), HDAC3-NcoR2 (cat# 50003) and HDAC8 (cat# 50008): as representative of Class I activity; catalytic domain HDAC4(αα 648–1057), HDAC5 (αα 657–1123; cat # 50005), HDAC7 (αα 518-end; cat # 50007) and HDAC9 (αα 604–1066; cat # 50009) activity: representing all Class IIa activity; and full length HDAC6 (cat#50006): representing Class IIb activity. […]

In data set [9] the test system is FXN. Further details: method as in PMID 16921367. The conditions noted are these: at the concentration tested; cited from earlier work.
The mark [10] stands for this setting: cyclodextrin suspension targeted at 1 mg/ml, with heating.

T1 sequence (O15379 whole entry): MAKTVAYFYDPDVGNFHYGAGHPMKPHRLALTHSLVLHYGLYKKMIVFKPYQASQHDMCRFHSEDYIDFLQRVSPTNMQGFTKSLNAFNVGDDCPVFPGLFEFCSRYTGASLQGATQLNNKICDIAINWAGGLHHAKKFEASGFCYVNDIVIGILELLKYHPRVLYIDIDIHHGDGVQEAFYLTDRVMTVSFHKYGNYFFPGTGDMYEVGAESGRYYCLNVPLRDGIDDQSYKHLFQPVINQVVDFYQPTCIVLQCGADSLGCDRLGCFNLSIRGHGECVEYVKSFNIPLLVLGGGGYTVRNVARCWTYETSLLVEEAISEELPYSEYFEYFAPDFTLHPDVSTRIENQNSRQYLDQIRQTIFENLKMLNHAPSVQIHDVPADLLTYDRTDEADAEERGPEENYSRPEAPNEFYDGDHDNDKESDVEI
T1 sequence (Q9Y618 395-489 partner limits assumed): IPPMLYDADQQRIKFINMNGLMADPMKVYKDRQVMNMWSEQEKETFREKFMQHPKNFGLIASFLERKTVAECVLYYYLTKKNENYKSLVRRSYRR

In the case of `Cc1ccc(NC(=O)CCCCCC(=O)Nc2ccccc2N)cc1.O=C(O)C(F)(F)F` [4b. TFA], in [1] (setting [10]), the “4b solubilised (after filtration), day 1” value is on record as 0.27 mg/mL and the “total 4b measured in suspension, day 1” value turned out to be 0.75 mg/mL. The “solubility in DMSO” value in [1] (prepared at 1 mg/ml) is “soluble”. Moreover, the solubility in water in data set [1] (salt forms) was < 1000 µg/mL. In addition, the “day 7 value as % of value at day 1” value in data set [2] (1 mg/ml in DMSO) is listed as 59%. Further, the “decrease in parent (4b) concentration, day 7 compared to day 1” value in data set [2] (cyclodextrin suspension, dark, gentle shaking, room temperature) came to 28%. The “cyclisation to benzimidazole product in solution” value in [2] (eg. aqueous acetonitrile, ambient temperature, more rapidly when heated) was “cyclised slowly”. Besides, the “4b dissolved (filtrate of suspension)” value in data set [3] is 0.3 mg/mL.
For `Nc1ccccc1NC(=O)CCCCCC(=O)O` [Compound M1], in data set [4], the half-inhibitory concentration (IC50) amounted to 26 µM. The “activity in the Class I cellular HDAC (Boc_Lys_Ac) assay” value in data set [5] is “totally inactive; also recorded: neither inhibits HDACs”. Further, the “share of the metabolism of parent accounted for by metabolite” value was 78% in data set [6] (parent 4b) and 42% in [7].
Turning to `O=C(O)CCCCCc1nc2ccccc2[nH]1` [Compound M3], the “activity in the Class I cellular HDAC (Boc_Lys_Ac) assay” value in data set [5] is “inactive”. In addition, the “activity in the biochemical HDAC assays” value in data set [8] was “inactive”. For the same molecule, the “share of the metabolism of parent accounted for by metabolite” value in data set [6] (parent C1) came out at 80%.
BML-210 [reference compound]: in data set [9], the “effect on FXN mRNA” value is recorded as “increase FXN mRNA without cytotoxicity”.

Usually IC50 stands for the midpoint of a concentration-inhibition curve.

Values taken from paper PMC3433414, “Oral Administration of the Pimelic Diphenylamide HDAC Inhibitor HDACi 4b Is Unsuitable for Chronic Inhibition of HDAC Activity in the CNS In Vivo” (PLoS ONE, 2012).
